In patent publication US9908899B2 (BIOMARIN PHARMACEUTICAL INC., priority 2011, dated 2018):
Read-outs that look alike come from different tables or passages of the source.

How the values were obtained:
Assay type in all cases: biochemical
HDAC1 = HDAC1 (Homo sapiens (Human), UniProt Q13547); assay: HDAC activity inhibition assay, HDAC1; settings: Table 1; 2 hours pre-incubation
Protocol: (§1) The HDAC activity inhibition assay was performed as follows to determine the ability of a test compound to inhibit HDAC enzymatic activity. […] Following pre-incubation, Fluor-de-Lys™ substrate (Enzo Life Sciences, Plymouth Meeting, Pa., BML-KI104-0050) was added to a final concentration of 10 μM and plates were further incubated for 30 minutes at room temperature. […] IC50 values were calculated by using a sigmoidal dose-response (variable slope) equation in GraphPad Prism® 5 for Windows (GraphPad Software, La Jolla, Calif.).

HDAC2 = HDAC2 (Homo sapiens (Human), UniProt Q92769); assay: HDAC activity inhibition assay, HDAC2
Protocol: as §1

HDAC3/NcoR2 = HDAC3/NcoR2 (Homo sapiens (Human), UniProt O15379); assay: HDAC activity inhibition assay, HDAC3/NcoR2
Protocol: as §1

[1] = Table 1, 2 hours pre-incubation

HDAC2, sequence (Q92769 whole entry): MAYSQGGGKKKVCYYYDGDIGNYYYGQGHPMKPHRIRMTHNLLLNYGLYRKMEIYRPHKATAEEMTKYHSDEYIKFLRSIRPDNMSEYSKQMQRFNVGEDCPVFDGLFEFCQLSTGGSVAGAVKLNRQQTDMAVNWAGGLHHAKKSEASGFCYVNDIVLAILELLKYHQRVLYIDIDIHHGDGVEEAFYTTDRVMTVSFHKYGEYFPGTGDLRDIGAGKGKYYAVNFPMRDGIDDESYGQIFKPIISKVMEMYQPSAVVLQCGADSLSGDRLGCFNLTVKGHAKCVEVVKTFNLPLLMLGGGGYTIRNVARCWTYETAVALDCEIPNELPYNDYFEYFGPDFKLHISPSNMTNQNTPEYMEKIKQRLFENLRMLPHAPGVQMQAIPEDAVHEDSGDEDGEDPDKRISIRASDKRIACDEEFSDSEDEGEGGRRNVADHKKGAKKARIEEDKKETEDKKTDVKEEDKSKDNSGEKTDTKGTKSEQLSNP
HDAC3/NcoR2, sequence (O15379 whole entry): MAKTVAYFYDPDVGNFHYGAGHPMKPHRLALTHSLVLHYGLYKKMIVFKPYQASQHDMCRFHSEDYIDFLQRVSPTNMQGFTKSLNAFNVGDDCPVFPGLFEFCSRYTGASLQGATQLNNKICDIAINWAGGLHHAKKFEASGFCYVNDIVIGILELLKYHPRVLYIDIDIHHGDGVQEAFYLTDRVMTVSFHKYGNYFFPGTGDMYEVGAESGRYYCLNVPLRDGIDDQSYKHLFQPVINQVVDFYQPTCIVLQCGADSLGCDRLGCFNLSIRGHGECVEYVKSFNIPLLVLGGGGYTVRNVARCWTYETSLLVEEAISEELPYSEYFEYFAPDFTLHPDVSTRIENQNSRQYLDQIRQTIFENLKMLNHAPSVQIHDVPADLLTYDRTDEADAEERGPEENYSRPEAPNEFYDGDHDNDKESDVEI
HDAC3/NcoR2, sequence (Q9Y618 395-489 partner): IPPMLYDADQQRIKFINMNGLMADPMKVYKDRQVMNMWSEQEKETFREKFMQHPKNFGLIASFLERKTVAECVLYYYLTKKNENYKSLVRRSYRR
HDAC1, sequence (Q13547 whole entry): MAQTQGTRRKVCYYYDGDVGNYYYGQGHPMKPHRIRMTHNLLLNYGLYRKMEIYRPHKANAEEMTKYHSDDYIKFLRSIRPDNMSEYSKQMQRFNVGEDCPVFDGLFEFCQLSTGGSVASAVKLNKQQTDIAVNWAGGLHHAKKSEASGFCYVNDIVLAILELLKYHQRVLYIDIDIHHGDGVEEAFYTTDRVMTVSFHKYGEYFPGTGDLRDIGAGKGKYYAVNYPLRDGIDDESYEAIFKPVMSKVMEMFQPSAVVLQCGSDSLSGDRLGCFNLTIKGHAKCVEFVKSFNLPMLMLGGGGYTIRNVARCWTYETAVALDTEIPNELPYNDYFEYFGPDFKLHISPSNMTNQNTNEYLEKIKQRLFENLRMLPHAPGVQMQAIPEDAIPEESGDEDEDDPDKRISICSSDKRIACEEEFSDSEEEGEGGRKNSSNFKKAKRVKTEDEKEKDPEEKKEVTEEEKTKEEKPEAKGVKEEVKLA

Structure (SMILES)	IC50 (HDAC1)	IC50 (HDAC2; [1])	IC50 (HDAC3/NcoR2; [1])	IC50 (HDAC2)	IC50 (HDAC3/NcoR2)
Cc1nc(/C=C/C(=O)Nc2ccccc2N)cs1 [A1]	1000 to 5000 nM	5000 to 10000 nM	< 1000 nM	–	–
Cc1ncc(/C=C/C(=O)Nc2ccccc2N)s1 [A3]	5000 to 10000 nM	5000 to 10000 nM	< 1000 nM	–	–
Cc1nc(/C=C/C(=O)Nc2ccccc2N)co1 [A4]	> 20000 nM	> 20000 nM	1000 to 5000 nM	–	–
Nc1ccccc1NC(=O)/C=C/c1cnc2ccccn12 [A6, (E)-N-(2-aminophenyl)-3-(imidazo[1,2-a]pyridin-3-yl)acrylamide]	5000 to 10000 nM	5000 to 10000 nM	< 1000 nM	–	–
Cn1ccc(/C=C/C(=O)Nc2ccccc2N)n1 [A7]	1000 to 5000 nM	1000 to 5000 nM	< 1000 nM	–	–
Nc1ccccc1NC(=O)/C=C/c1cn2ccccc2n1 [A9]	1000 to 5000 nM	1000 to 5000 nM	< 1000 nM	–	–
Nc1ccccc1NC(=O)/C=C/c1cn2ccnc2s1 [A10]	1000 to 5000 nM	1000 to 5000 nM	< 1000 nM	–	–
Cn1cnc(/C=C/C(=O)Nc2ccccc2N)c1 [A12]	1000 to 5000 nM	5000 to 10000 nM	< 1000 nM	–	–
Nc1ccccc1NC(=O)/C=C/c1cnn(CC2CC2)c1 [B1]	1000 to 5000 nM	5000 to 10000 nM	< 1000 nM	–	–
Nc1ccccc1NC(=O)/C=C/c1cnn(C/C=C/c2ccc(F)cc2)c1 [B2]	< 1000 nM	1000 to 5000 nM	< 1000 nM	–	–
Nc1ccccc1NC(=O)/C=C/c1cnn(CCOc2cc(F)cc(F)c2)c1 [B3, (E)-N-(2-aminophenyl)-3-(1-(2-(3,5-difluorophenoxy)ethyl)-1H-pyrazol-4-yl)acrylamide]	< 1000 nM	< 1000 nM	< 1000 nM	–	–
Nc1ccccc1NC(=O)/C=C/c1cnn(CCOc2ccc(C(F)(F)F)cc2)c1 [B4]	< 1000 nM	1000 to 5000 nM	< 1000 nM	–	–
Nc1ccccc1NC(=O)/C=C/c1cnn(CCOc2cc(F)cc(Cl)c2)c1 [B5, (E)-N-(2-aminophenyl)-3-(1-(2-(3-chloro-5-fluorophenoxy)ethyl)-1H-pyrazol-4-yl)acrylamide]	< 1000 nM	< 1000 nM	< 1000 nM	–	–
Nc1ccccc1NC(=O)/C=C/c1cnn(CCOc2ccc(F)cc2)c1 [B6]	< 1000 nM	< 1000 nM	< 1000 nM	–	–
CCn1cc(/C=C/C(=O)Nc2ccccc2N)cn1 [C1]	1000 to 5000 nM	1000 to 5000 nM	< 1000 nM	–	–
Cn1cc(/C=C/C(=O)Nc2ccc(F)cc2N)cn1 [C2]	–	–	–	> 20000 nM	1000 to 5000 nM
Nc1ccccc1NC(=O)/C=C/c1cnn(Cc2ccc(F)cc2)c1 [D5]	< 1000 nM	1000 to 5000 nM	< 1000 nM	–	–
Nc1ccccc1NC(=O)/C=C/c1cnn(CCc2c[nH]c3ccccc23)c1 [D13]	< 1000 nM	< 1000 nM	< 1000 nM	–	–
Nc1ccccc1NC(=O)/C=C/c1cnn(CCCOc2ccccc2)c1 [D15]	< 1000 nM	< 1000 nM	< 1000 nM	–	–
Nc1cc(F)ccc1NC(=O)/C=C/c1cnn(CCOc2ccccc2)c1 [D16]	1000 to 5000 nM	1000 to 5000 nM	< 1000 nM	–	–
CCOCc1cn2cc(/C=C/C(=O)Nc3ccccc3N)sc2n1 [E1, (E)-N-(2-aminophenyl)-3-(6-(ethoxymethyl)imidazo[2,1-b]thiazol-2-yl)acrylamide]	1000 to 5000 nM	5000 to 10000 nM	< 1000 nM	–	–
Nc1ccccc1NC(=O)c1ccc(C=C2CN(Cc3ccc4cc[nH]c4c3)C2)c(Cl)c1 [F5, 4-((1-((1H-indol-6-yl)methyl)azetidin-3-ylidene)methyl)-N-(2-aminophenyl)-3-chlorobenzamide]	< 1000 nM	1000 to 5000 nM	< 1000 nM	–	–
Nc1ccccc1NC(=O)c1ccc(C=C2CN(Cc3cccnc3)C2)c(Cl)c1 [F6]	–	1000 to 5000 nM	–	–	–
